Laboratory results as given in US4666931A, “Benzofuran derivatives useful in treating diabetic complications” (Kaken Pharmaceutical Co., Ltd., priority 1984, dated 1987).
Read-outs that look alike come from different tables or passages of the source.

What was measured:
[1] = target: T1, aldose reductase from rat lens (Rattus norvegicus, UniProt P07943); experiment: Aldose reductase inhibiting activity; assay type: biochemical; details: DL-glyceraldehyde substrate, Table 2, read-out: IC50 (50% inhibition concentration in M)
T1 construct: the supernatant was prepared as the crude enzyme solution; from tissue; host or cells: lens of male Wistar rats, 10,000 g supernatant of homogenate (crude enzyme)
Experimental: Wistar male rats were sacrificed by decapitation and the lenses were taken out to be homogenized with a 0.1M phosphate buffer [pH 6.8, containing 1 mM of mercaptoethanol and 1 mM of nicotinamide-adenine dinucleotide phosphate (NADP)]. The homogenate was then centrifuged at 10,000 g for 15 minutes and the supernatant was prepared as the crude enzyme solution.

[2] = Acute toxicity test in mice (oral); details: mouse, in vivo, po
Experimental: (§1) Acute toxicity test in mice was carried out on the benzofuran derivatives of the compound Nos. 3, 5, 9, 21, 23, 26, 29 and 34.

[3] = test system: mice; experiment: Acute toxicity test in mice (oral); details: mice, oral, up to 3 g/kg
Experimental: as §1

[4] = test system: aggregation of the washed rabbit platelet by thrombin; experiment: Platelet aggregation inhibiting activity (washed rabbit platelet, thrombin); assay type: cell-based; details: for IC50: Oryctolagus cuniculus, Platelet; for platelet aggregation inhibiting activity relative to Persantin: compared with Persantin (dipyridamole)
Experimental: Blood samples were collected from the auricular blood vessel of rabbits (white local breed), and washed platelets were prepared therefrom by the method of Baenziger et al. (N. L. Baenziger and P. W. Majerus, Methods Enzymol., 31, 149 to 155 (1974). The platelets were suspended in a 15 mM Tris-hydrochloric acid buffer with a final concentration of 6×10^8 cells/ml (Tris: tris(hydroxymethyl)aminomethane). Each test compound of the compound Nos. 5, 8, 9, 11, 23, 29, 30 and 33 and Persantin® was added thereto and incubation was carried out at 37° C. for 2 minutes. Then the platelets were stimulated by addition of thrombin (0.2 unit/ml of final concentration; made by Mochida Pharmaceutical Co.) and the aggregation inhibiting activity was estimated by the observation of the aggregation reaction using an aggregometer (made by Briston Co.).
The results are shown in Table 3 in terms of IC50 (50% inhibiton concentration in M).

[5] = test system: production of malondialdehyde from arachidonic acid by rabbit platelets; experiment: Arachidonic acid metabolism inhibiting activity: production of malondialdehyde from arachidonic acid by rabbit platelets; assay type: cell-based; details: Oryctolagus cuniculus, Platelet, arachidonic acid 0.2 mM, read-out: concentration showing 50% inhibition against the production of malondialdehyde from arachidonic acid
Experimental: Washed rabbit platelets prepared as in the platelet aggregation inhibiting activity test were suspended in 15 mM Tris-hydrochloric acid buffer with a final concentration of 1×10^8 cell/ml, to which each test compound of the compound Nos. 8, 13, 14, 19, 20, 23, 29, 30 and 33 were added and the resultant was preincubated at 37° C. for five minutes. Then arachidonic acid (a final concentration: 0.2 mM, made by Sigma Chemical Co.) was added thereto and the mixture was preincubated for 1 minute. An amount of the produced malondialdehyde was measured according to the thiobarbiturates method (Ed. Aoki and Shibata, Ketsuekigaku Kenkyukensaho, P 441 to 447).

[6] = test system: cyclooxygenase; experiment: Cyclooxygenase inhibition: malondialdehyde production from arachidonic acid, 9000 G supernatant of lung homogenate from guinea pig; assay type: biochemical; details: guinea pig lung 9000 G supernatant, compared with aspirin
Experimental: Lung from guinea pig was washed with physiological saline and homogenized in 0.1M Tris-hydrochloric acid buffer to prepare a supernatant by cooled centrifugation (9000 G).
The inhibiting activity against cyclooxygenase was measured by using the 9000 G supernatant as a source of cyclooxygenase in the presence of 1 mM epinephiline.

[7] = washed rabbit platelets, thrombin 0.2 unit/ml, 37° C., Table 3, read-out: IC50 (50% inhibition concentration in M)
[8] = range for nine compounds, read-out: concentration showing 50% inhibition against the aggregation of the washed rabbit platelet by thrombin

Question: With `COc1ccc(S(=O)(=O)NCC(=O)O)c2cc(C(C)=O)oc12` [Compound 1, 2-acetyl-4-(N-carboxymethylsulfamoyl)-7-methoxybenzofuran] as the molecule, how does the IC50 [1] read?
Answer: 0.2 µM

Question: For `CCOc1ccc(S(=O)(=O)NCC(=O)O)c2cc(C(C)=O)oc12` [Compound 2, 2-acetyl-4-(N-carboxymethylsulfamoyl)-7-ethoxybenzofuran], which IC50 [1] is on record?
Answer: 0.1 µM

Question: What does the source list for `CCCOc1ccc(S(=O)(=O)NCC(=O)O)c2cc(C(C)=O)oc12` [Compound 3, 2-acetyl-4-(N-carboxymethylsulfamoyl)-7-n-propoxybenzofuran]?
Answer: IC50 [1]: 0.06 µM; LD50 at 336 h [2]: > 3000 mg/kg; death up to the dose of 3 g/kg body weight [3]: no death

Question: With `CCCCOc1ccc(S(=O)(=O)NCC(=O)O)c2cc(C(C)=O)oc12` [Compound 4, 2-acetyl-4-(N-carboxymethylsulfamoyl)-7-n-butoxybenzofuran] as the molecule, how does the IC50 [1] read?
Answer: 0.04 µM

Question: With `CCCCCCOc1ccc(S(=O)(=O)NCC(=O)O)c2cc(C(C)=O)oc12` [Compound 6, 2-acetyl-4-(N-carboxymethylsulfamoyl)-7-n-hexyloxybenzofuran] as the molecule, how does the IC50 [1] read?
Answer: 0.05 µM

Question: With `CCCCCCCOc1ccc(S(=O)(=O)NCC(=O)O)c2cc(C(C)=O)oc12` [Compound 7, 2-acetyl-4-(N-carboxymethylsulfamoyl)-7-n-heptyloxybenzofuran] as the molecule, how does the IC50 [1] read?
Answer: 0.03 µM

Question: And the IC50 [4, 7]?
Answer: 150 µM

Question: Which results are given for `CC(=O)c1cc2c(S(=O)(=O)NCC(=O)O)ccc(OCC(=O)O)c2o1` [Compound 8, 2-acetyl-4-(N-carboxymethylsulfamoyl)-7-(carboxymethoxy)benzofuran]?
Answer: IC50 [1]: 0.2 µM; IC50 [4, 8]: 20 to 200 µM; IC50 [4, 7]: 130 µM; platelet aggregation inhibiting activity relative to Persantin [4]: equivalent to or more than; IC50 [5]: 10 to 100 µM; inhibition against malondialdehyde production relative to aspirin [6]: equivalent to or more than

Question: For `CCCCOc1ccc(S(=O)(=O)N(C)C(C)C(=O)O)c2cc(C(C)=O)oc12` (stereo not shown) [Compound 10, 2-acetyl-4-(N-methyl-N-(1-carboxyethyl)sulfamoyl)-7-n-butoxybenzofuran], which IC50 [1] is on record?
Answer: 7 µM

Question: What about the IC50 [4, 8] of the same molecule?
Answer: 20 to 200 µM

Question: What about the IC50 [4, 7] of the same molecule?
Answer: 160 µM

Question: And the “platelet aggregation inhibiting activity relative to Persantin” value [4]?
Answer: equivalent to or more than

Question: Which results are given for `CCCCOc1ccc(S(=O)(=O)NC(C)C(=O)O)c2cc(C(C)=O)oc12` (stereo not shown) [Compound 11, 2-acetyl-4-(N-(1-carboxyethyl)sulfamoyl)-7-n-butoxybenzofuran]?
Answer: IC50 [1]: 5 µM; IC50 [4, 8]: 20 to 200 µM; IC50 [4, 7]: 160 µM; platelet aggregation inhibiting activity relative to Persantin [4]: equivalent to or more than

Question: With `O=C(O)CNS(=O)(=O)c1ccc(OCC(=O)O)c2oc(C(=O)O)cc12` [Compound 12, 2-carboxy-4-(N-carboxymethylsulfamoyl)-7-(carboxymethoxy)benzofuran] as the molecule, how does the IC50 [1] read?
Answer: 0.2 µM

Question: Which IC50 [1] does the source give for `COc1ccc(S(=O)(=O)NCC(=O)O)c2cc(C(=O)O)oc12` [Compound 13, 2-carboxy-4-(N-carboxymethylsulfamoyl)-7-methoxybenzofuran] here?
Answer: 0.1 µM

Question: What about the IC50 [5] of the same molecule?
Answer: 10 to 100 µM

Question: What about the “inhibition against malondialdehyde production relative to aspirin” value [6] of the same molecule?
Answer: equivalent to or more than

Question: Which IC50 [1] does the source give for `CCOc1ccc(S(=O)(=O)NCC(=O)O)c2cc(C(=O)O)oc12` [Compound 14, 2-carboxy-4-(N-carboxymethylsulfamoyl)-7-ethoxybenzofuran] here?
Answer: 0.07 µM

Question: What about the IC50 [5] of the same molecule?
Answer: 10 to 100 µM

Question: What about the “inhibition against malondialdehyde production relative to aspirin” value [6] of the same molecule?
Answer: equivalent to or more than

Question: For `CC(=O)c1cc2c(S(=O)(=O)NCC(=O)O)ccc(C)c2o1` [Compound 15, 2-acetyl-4-(N-carboxymethylsulfamoyl)-7-methylbenzofuran], which IC50 [1] is on record?
Answer: 0.5 µM

Question: With `CCC(C)c1ccc(S(=O)(=O)NCC(=O)O)c2cc(C(C)=O)oc12` (stereo not shown) [Compound 16, 2-acetyl-4-(N-carboxymethylsulfamoyl)-7-sec-butylbenzofuran] as the molecule, how does the IC50 [1] read?
Answer: 0.4 µM

Question: With `CC(=O)c1cc2c(S(=O)(=O)NCC(=O)O)c3c(cc2o1)OCO3` [Compound 17, 2-acetyl-4-(N-carboxymethylsulfamoyl)-5,6-methylenedioxybenzofuran] as the molecule, how does the IC50 [1] read?
Answer: 2 µM

Question: For `COc1ccc(S(=O)(=O)NCC(=O)O)c2oc(C(C)=O)cc12` [Compound 18, 2-acetyl-4-methoxy-7-(N-carboxymethylsulfamoyl)benzofuran], which IC50 [1] is on record?
Answer: 5 µM

Question: For `COc1ccc(S(=O)(=O)NCC(=O)O)c2cc(C3(C)NC(=O)NC3=O)oc12` (stereo not shown) [Compound 19, 2-(4-methyl-2,5-dioxoimidazolidine-4-yl)-4-(N-carboxymethylsulfamoyl)-7-methoxybenzofuran], which IC50 [1] is on record?
Answer: 2 µM

Question: And the IC50 [5]?
Answer: 10 to 100 µM

Question: What about the “inhibition against malondialdehyde production relative to aspirin” value [6] of the same molecule?
Answer: equivalent to or more than

Question: For `COc1c(S(=O)(=O)NCC(=O)O)cc(S(=O)(=O)NCC(=O)O)c2cc(C3(C)NC(=O)NC3=O)oc12` (stereo not shown) [Compound 20, 2-(4-methyl-2,5-dioxoimidazolidine-4-yl)-4,6-di(N-carboxymethylsulfamoyl)-7-methoxybenzofuran], which IC50 [1] is on record?
Answer: 0.3 µM

Question: And the IC50 [5]?
Answer: 10 to 100 µM

Question: What about the “inhibition against malondialdehyde production relative to aspirin” value [6] of the same molecule?
Answer: equivalent to or more than

Question: Which results are given for `CCc1oc2ccc([N+](=O)[O-])cc2c1S(=O)(=O)NCC(=O)O` [Compound 21, 2-ethyl-3-(N-carboxymethylsulfamoyl)-5-nitrobenzofuran]?
Answer: IC50 [1]: 0.05 µM; LD50 at 336 h [2]: > 3000 mg/kg; death up to the dose of 3 g/kg body weight [3]: no death

Question: With `CCc1oc2ccc(NC(C)=O)cc2c1S(=O)(=O)NCC(=O)O` [Compound 22, 2-ethyl-3-(N-carboxymethylsulfamoyl)-5-acetylaminobenzofuran] as the molecule, how does the IC50 [1] read?
Answer: 0.05 µM

Question: For `COc1ccc(COc2ccc(S(=O)(=O)NCC(=O)O)c3cc(C(C)=O)oc23)cc1` [Compound 24, 2-acetyl-4-(N-carboxymethylsulfamoyl)-7-p-methoxybenzyloxybenzofuran], which IC50 [1] is on record?
Answer: 0.03 µM

Question: With `CC(=O)c1cc2c(S(=O)(=O)NCC(=O)O)ccc(OCC(C)Cl)c2o1` (stereo not shown) [Compound 25, 2-acetyl-4-(N-carboxymethylsulfamoyl)-7-(2-chloropropyloxy)benzofuran] as the molecule, how does the IC50 [1] read?
Answer: 0.2 µM

Question: With `CC(=O)c1cc2c(S(=O)(=O)NCC(=O)O)ccc(OCC#N)c2o1` [Compound 27, 2-acetyl-4-(N-carboxymethylsulfamoyl)-7-cyanomethyloxybenzofuran] as the molecule, how does the IC50 [1] read?
Answer: 0.1 µM

Question: Which IC50 [1] does the source give for `CC(=O)c1cc2c(S(=O)(=O)NCC(=O)O)ccc(O)c2o1` [Compound 28, 2-acetyl-4-(N-carboxymethylsulfamoyl)-7-hydroxybenzofuran] here?
Answer: 0.08 µM

Question: For `CC(=O)c1cc2c(S(=O)(=O)NCC(=O)O)ccc(OCc3ccc(Cl)cc3)c2o1` [Compound 30, 2-acetyl-4-(N-carboxymethylsulfamoyl)-7-p-chlorobenzyloxybenzofuran], which IC50 [1] is on record?
Answer: 0.04 µM

Question: And the IC50 [4, 8]?
Answer: 20 to 200 µM

Question: What about the IC50 [4, 7] of the same molecule?
Answer: 30 µM

Question: And the “platelet aggregation inhibiting activity relative to Persantin” value [4]?
Answer: equivalent to or more than

Question: What about the IC50 [5] of the same molecule?
Answer: 10 to 100 µM

Question: What about the “inhibition against malondialdehyde production relative to aspirin” value [6] of the same molecule?
Answer: equivalent to or more than

Question: Which IC50 [1] does the source give for `C=CCOc1ccc(S(=O)(=O)NCC(=O)O)c2cc(C(C)=O)oc12` [Compound 31, 2-acetyl-4-(N-carboxymethylsulfamoyl)-7-allyloxybenzofuran] here?
Answer: 0.05 µM

Question: For `C=CCCOc1ccc(S(=O)(=O)NCC(=O)O)c2cc(C(C)=O)oc12` [Compound 32, 2-acetyl-4-(N-carboxymethylsulfamoyl)-7-(3-butenyloxy)benzofuran], which IC50 [1] is on record?
Answer: 0.03 µM

Question: For `COc1ccc(COc2ccc(S(=O)(=O)N(CC(=O)O)Cc3ccc(OC)cc3)c3cc(C(C)=O)oc23)cc1` [Compound 33, 2-acetyl-4-(N-p-methoxybenzyl-N-carboxymethylsulfamoyl)-7-p-methoxybenzyloxybenzofuran], which IC50 [1] is on record?
Answer: 0.8 µM

Question: And the IC50 [4, 8]?
Answer: 20 to 200 µM

Question: And the IC50 [4, 7]?
Answer: 20 µM

Question: And the “platelet aggregation inhibiting activity relative to Persantin” value [4]?
Answer: equivalent to or more than

Question: And the IC50 [5]?
Answer: 10 to 100 µM

Question: What about the “inhibition against malondialdehyde production relative to aspirin” value [6] of the same molecule?
Answer: equivalent to or more than

Question: For `CC(=O)c1cc2c(S(=O)(=O)N(CC(=O)O)Cc3ccccc3)ccc(OCc3ccccc3)c2o1` [Compound 35, 2-acetyl-4-(N-benzyl-N-carboxymethylsulfamoyl)-7-benzyloxybenzofuran], which IC50 [1] is on record?
Answer: 0.7 µM

Question: With `OCCN(CCO)c1nc(N2CCCCC2)c2nc(N(CCO)CCO)nc(N3CCCCC3)c2n1` [Persantin ®, dipyridamole, reference compound] as the molecule, how does the IC50 [4, 7] read?
Answer: 200 µM
